# According to patent publication US6800628B2, “N-substituted 4-((-4′-aminobenzoyl)-oxymethyl)-piperidines having gastric prokinetic properties” (Janssen Pharmaceutica N.V., priority 1996, dated 2004):
# System: not given
# Assay: not given
# Conditions: not given
row,melting point [°C],Compound
1,140,"COc1cc(N)c(Cl)cc1C(=O)OCC1CCN(CCCOc2ccc(F)cc2)CC1 [Compound 1, [1-[3-(4-fluorophenoxy)propyl]-4-piperidinyl]methyl 4-amino-5-chloro-2-methoxybenzoate]"

# Molecular target: 5 HT4 receptor (Homo sapiens, UniProt Q13639)
# Sequence (Q13639 whole entry): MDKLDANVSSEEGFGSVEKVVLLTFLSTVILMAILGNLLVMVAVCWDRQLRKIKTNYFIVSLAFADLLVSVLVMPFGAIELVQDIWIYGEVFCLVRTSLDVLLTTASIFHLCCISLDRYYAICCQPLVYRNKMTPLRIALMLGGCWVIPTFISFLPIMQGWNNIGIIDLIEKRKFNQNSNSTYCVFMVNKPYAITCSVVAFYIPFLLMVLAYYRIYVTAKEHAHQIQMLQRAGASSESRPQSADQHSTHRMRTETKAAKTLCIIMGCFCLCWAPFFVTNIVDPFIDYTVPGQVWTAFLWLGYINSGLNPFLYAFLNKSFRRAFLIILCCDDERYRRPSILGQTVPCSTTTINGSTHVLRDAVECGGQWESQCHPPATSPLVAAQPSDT
# Assay: not given
# Conditions: stated for prior art compounds; cited from earlier work
row,Compound,5 HT4 receptor activity (agonistic / antagonistic)
1,"Nc1c(Cl)cc(C(=O)OCC2CCN(Cc3cccnc3)CC2)c2c1OCCO2 [5-(1-(3-pyridylmethyl)-4-piperidinyl)methyl-8-amino-7-chloro-1,4-benzo-dioxancarboxylate]",5 HT4 receptor antagonistic activity
2,"CCCCN1CCC(OC(=O)c2cc(Cl)c(N)c3c2OCCO3)CC1 [8-amino-7-chloro-1,4-benzodioxan-5-(1-butyl-4-piperidinyl)carboxylate]",5 HT4 receptor antagonistic activity
3,"CCCCN1CCC(COC(=O)c2cc(Cl)c(N)c3c2OCCO3)CC1 [(1-butyl-4-piperidinyl)methyl 8-amino-7-chloro-1,4-benzodioxan-5-carboxylate]",5 HT4 receptor antagonistic activity
4,"CCCCN1CCC(COC(=O)c2cc(Cl)c(N)c3c2OCC3)CC1.Cl [(1-butyl-4-piperidinyl)methyl-4-amino-5-chloro-2,3-dihydrobenzo[b]furan-7-carboxylate hydrochloride]",5 HT4 receptor agonistic activity
5,"CCCCN1CCC(COC(=O)c2cc(Cl)c(N)c3c2OCCC3)CC1.Cl [(1-butyl-4-piperidinyl)methyl-5-amino-6-chloro-3,4-dihydro-2-H-1-benzopyran-8-carboxylate hydrochloride]",5 HT4 receptor antagonistic activity
6,"CCOC(=O)CCN1CCC(COC(=O)c2cc(Cl)c(N)c3c2OCCO3)CC1 [[1-(2-carbo-ethoxyethyl)-4-piperidinyl]methyl-8-amino-7-chloro-1,4-benzodioxan-5-carboxylate]",5 HT4 receptor antagonistic activity
7,"CC(O)CCN1CCC(COC(=O)c2cc(Cl)c(N)c3c2OCCO3)CC1 (stereo not drawn) [[1-(3-hydroxybutyl)-4-piperidinyl]methyl-8-amino-7-chloro-1,4-benzodioxan-5-carboxylate]",5 HT4 receptor antagonistic activity

# System: conscious dogs
# Assay: Gastric emptying of an acaloric liquid test meal delayed by administration of lidamidine, in conscious dogs
# Format: in vivo, beagle dogs
# Conditions: gastric emptying of a liquid meal delayed by lidamidine in conscious dog; dose of 0.04 mg/kg of the test compound
# Excerpt: “Gastric Emptying of an Acaloric Liquid Test Meal Delayed by […] of Lidamidine, in Conscious Dogs” Test
# Female beagle dogs, weighing 7-14 kg, were trained to stand quietly in Pavlov frames. They were implanted with a gastric cannula under general anaesthesia and aseptic precautions. After a median laparatomy, an incision was made through the gastric wall in the longitudinal direction between the greater and the lesser curve, 2 cm above the nerves of Latarjet. The cannula was secured to the gastric wall by means of a double purse string suture and brought out via a stab wound at the left quadrant of the hypochondrium. Dogs were allowed a recovery period of at least two weeks. […]
# In the 1 ml samples of the gastric contents, the glucose concentrations were measured on a Hitachi 717 automatic analyser by the hexokinase method (Schmidt, 1961).
# Curves were fitted to the measurement points (glucose vs time) using weighed non-linear regression analysis. Gastric emptying was quantified as the time needed to empty 70% of the meal (t70%). The control emptying time was calculated as the mean t70% of the last 5 solvent experiments of the same dog. Acceleration of delayed gastric emptying (Δt) was calculated as the time difference between t70% compound and t70% solvent. To correct for variations in emptying rate between dogs, Δt was expressed as % of t70% solvent (Schuurkes et al, 1992).
row,Compound,Acceleration (Δt/t)
1,"Cc1nccnc1NCCN1CCC(COC(=O)c2cc(Cl)c(N)c3c2OC(C)(C)C3)CC1 [Compound 6, [1-[2-[(3-methyl-2-pyrazinyl)amino]ethyl]-4-piperidinyl]methyl 4-amino-5-chloro-2,3-dihydro-2,2-dimethyl-7-benzofurancarboxylate]",−0.41
